Like-named read-outs stand apart in the source and are kept apart here. Non-standard residues stand in square brackets, D forms with d. Residues, ends and D or L forms follow the SMILES beside them. *: point of attachment. dPhe(4-Br) = N[C@H](Cc1ccc(Br)cc1)C(=O)O; Agmatine = N=C(N)NCCCCN*
Molecular target: thrombin (Homo sapiens, UniProt P00734)
Assay: colorimetric microplate assay with synthetic peptide substrates, inhibition of thrombin
Format: biochemical
Experimental: The compounds were tested for inhibition of thrombin and trypsin using a colorimetric microplate assay with synthetic peptide substrates as described by Tapparelli, J. Biol. Chem. 268:4734 (1993). […]

[1] = values not in parentheses (purified compounds, error less than 10%), '-' = not active, read-out: Ki Thrombin

| Ki [1] [nM] | Ki (most active compound, read-out: Ki) [nM] | SMILES |
| --- | --- | --- |
| 120 |  | NC(N)=NCCCCNC(=O)[C@@H]1CCCN1C(=O)[C@H](N)Cc1ccccc1 [Compound A2B1] (H-[dF]-Pro-Agmatine) |
|  | 41 | N=C(N)NCCCCNC(=O)[C@@H]1CCCN1C(=O)[C@H](N)Cc1ccc(Br)cc1 [Compound A3B1] (H-[dPhe(4-Br)]-Pro-Agmatine) |
| 690 |  | NCCCCCNC(=O)[C@@H]1CCCN1C(=O)[C@H](N)Cc1ccccc1 [Compound A2B9] |
